Reference: patent US12590340B2, “Microfluidic plasmonic color reading chips and methods” (priority 2021, dated 2026)
Converted amounts (≈) assume the structure as drawn. “Also recorded” adds a separate entry of the source. Where two headings read alike, the source gives them in different places.

Columns and labels:
Amp. Resistant E. coli [1] = experiment: antibiotic susceptibility study in spiked whole blood on the chip; assay type: cell-based, Escherichia coli; conditions: 100, 50, 20 CFU/mL, 32 μg/mL Ampicilin, up to 150 minutes
Description: For the spiked human sample experiment, human whole blood was centrifuged in two steps first at 150 rcf for 10 minutes followed by 7000 rcf for 3 min. It was subsequently spiked with 100, 50 or 20 CFU/mL and mixed with a solution of resazurin to a final concentration of 0.01%. No antibiotics were added for the control aliquots, 32 μg/mL ampicillin was added for resistant aliquots and 16 μg/mL kanamycin was added for susceptible aliquots. The aliquots were incubated at 37° C. different periods starting from 0 minutes incubation till 150 minutes with a time step of 5 minutes.
FIGS. 12A-12B show the results of an antibiotic susceptibility study conducted using whole blood spiked with Amp. Resistant E. coli to a final concentration of 100, 50, 20 CFU/mL in the presence of 32 μg/mL Ampicilin. […] The mean Gvalue/Bvalue (a) can be a credible parameter to follow the sequence in the color change and translate it to a quantifiable data FIG. 12B. […] Quantifiably, the time in which the α-value undergoes a step levitation is corresponding to the time the color transition is visible to the naked eye.

[2] = system: Ampicillin resistant Escherichia coli strain; experiment: antibiotic susceptibility profiling by resazurin color change on the plasmonic microfluidic chip; assay type: cell-based; conditions: for increase in green value of the 1-hour incubated aliquots compared to the zero minute incubation aliquot: 100 μg/mL ampicillin, 37° C.; for constant green value throughout the 1-hour incubation: 50 μg/mL kanamycin
Description: Ampicillin resistant Escherichia coli strain (Amp resistant E. coli, #211540, Merlan scientific, Ontario, Canada) was cultured overnight at 37° C. in Luria broth (LB) media supplemented with 100 μg/mL Ampicillin (#216858, Merlan scientific, Ontario, Canada). Next, the bacterial concentration was determined by optical density technique using a Spectronic 21D spectrophotometer. Subsequently, aliquots of different concentrations were prepared for the antibiotic susceptibility testing experiments.
(§1) Resistant E. coli, MRSA, and Cipro. Resistant PA respectively was used. The aliquots were incubated at 37° C. for different periods of time starting from 0 minutes incubation to a 60 minutes with a time step of 5 minutes. For susceptible bacterial samples, aliquots of Amp resistant E. coli were prepared (5×10^5 CFU/mL, 10^3 CFU/mL, 10^2 CFU/mL, and 50 CFU/mL), MRSA (5×10^5 CFU/mL), and Cipro. Resistant PA (5×10^5 CFU/mL). […] Resistant E. coli, MRSA, and Cipro. Resistant PA respectively was used. The aliquots were incubated at 37° C. different periods starting from 0 minutes incubation till 60 minutes with a time step of 5 minutes.
(§2) To rapidly detect the sample color change on the platform the reflectance spectra was measured using a Lambda 750 UV/Vis/NIR Spectrophotometer (PerkinElmer). The incident and collected light beams had normal incidence to the platform. Further, optical imaging was performed under highly controlled environment using Nikon Eclipse LV150 (Nikon) with a ×100, 0.9 NA air objective and Nikon digital sight ds-fi1 CCD camera with a white reference of R:0.75 G:1.0 B:2.36.51.
(§3) The microfluidic chip used was similar to that illustrated in FIG. 1B, having two characteristic chambers 1) antibiotic infusing chamber (AI) 103 equipped with bacteria entrapping micropillars 104p; and 2) plasmonic color-sensitive chamber (PCS) 105. The operational procedure of the microfluidic chip was to inject the bacteria containing growth media along with an antibiotic of interest and 0.02% resazurin solution from the inlet to get mixed in the Al mixing and entrapment chamber. Microfluidic chips were incubated for one hour through time intervals of 5 minutes. After incubation, the liquid in the Al chamber 103 was pushed towards the PCS chamber 105 sensing chamber while the bacteria was entrapped behind the micropillars 104p.
To conveniently convert the microscopy results to the feasible CIE color gamut, each picture of the data set loaded to MATLAB was read as a 3 layer matrix, each pixel has 3 components, one per layer, corresponding to its R, G and B value. The processing involved image crop and a sample selection. A simple average calculation was run individually to get an overall value for R, G and B components for each of the 5 samples generated. Following that, the mean across the collection was calculated. The error bar was computed at 1 standard deviation.
All images were processed and analyzed through a MATLAB™ script which allowed the analysis of multiple images simultaneously. The TIFF files were loaded and cropped to 80% of their original dimensions to avoid the coffee-ring effect. An option for the manual crop was also available. For each image, five samples of 480×480 pixels were randomly selected. Subsequently, for each the R, G and B values were averaged followed by the calculation of the mean RGB value and error across them. Succeeding their conversion to XYZ and x, y color systems. The RGB values of each image with its corresponding error bar were plotted against time. Additionally, the x and y values were scattered on the CIE1931 color space to analyze the color change through time.

Amp. Resistant E. coli [3] = experiment: antibiotic susceptibility study in spiked human urine on the chip; assay type: cell-based, Escherichia coli
Description: For the spiked human sample experiment, human urine was centrifuged at 5000 rcf for 5 minutes to remove large particles. It was subsequently spiked with 5×10^5 CFU/mL and mixed with a solution of resazurin to a final concentration of 0.02%. No antibiotics were added for the control aliquots, 100 μg/mL ampicillin was added for resistant aliquots and 50 μg/mL Kanamycin was added for susceptible aliquots. The aliquots were incubated at 37° C. different periods starting from 0 minutes incubation till 60 minutes with a time step of 5 minutes.
FIGS. 11A-11F show the results of an antibiotic susceptibility study conducted using human urine spiked with Amp. Resistant E. coli to a final concentration of 5×10^5 CFU/mL. The study utilized 3 aliquot sets of control (no antibiotic), resistant (100 μg/mL Ampicillin), and susceptible (50 μg/mL Kanamycin). […] The trend is highlighted with a white arrow on the 2D chromaticity diagram in FIG. 11B. […] are web plots of the red, green, and blue values analyzed from the bright-field microscopy of the sets. […] Green values increased overtime in the control and resistant sets (88 to 122 for resistant and 82 to 117 for control) showing the change towards green color and indicating the reduction of resazurin to resorufin by viable bacterial cells. […] Resistant E. coli.

Cipro. Resistant PA [4] = conditions: 60 minutes, 5×10^5 CFU/mL
Text: as §3

MRSA [5] = experiment: antibiotic susceptibility profiling by resazurin color change on the plasmonic microfluidic chip; assay type: cell-based, Staphylococcus aureus; conditions: 5×10^5 CFU/mL, 4 ug/mL Oxacillin; for color response over 1-hour incubation (resistant / susceptible): 1 ug/mL Ciprofloxacin
Description: as §1, §2
as §3, with “After incubation, the liquid in the Al chamber 103 was pushed towards the PCS chamber 105 sensing chamber while the bacteria was entrapped behind the micropillars 104p.” left out
(§4) To conveniently convert the microscopy results to the feasible CIE color gamut, each picture of the data set loaded to MATLAB was read as a 3 layer matrix, each pixel has 3 components, one per layer, corresponding to its R, G and B value. […] Following that, the mean across the collection was calculated. […]
(§5) All images were processed and analyzed through a MATLAB™ script which allowed the analysis of multiple images simultaneously. […]

Cipro. Resistant PA [6] = experiment: as above; assay type: cell-based, Pseudomonas aeruginosa; conditions: 5×10^5 CFU/mL; 2 ug/mL Ciprofloxacin, 4 ug/mL Gentamicin
Description: as §1
To rapidly detect the sample color change on the platform the reflectance spectra was measured using a Lambda 750 UV/Vis/NIR Spectrophotometer (PerkinElmer). The incident and collected light beams had normal incidence to the platform. […]
as §4, §5

Amp resistant E. coli = experiment: minimum inhibitory concentration (MIC) study with resazurin on the chip; conditions: for y-value: 60 minutes, 5×10^5 CFU/mL
MRSA [7] = experiment: as above; conditions: for y-value: 60 minutes, 5×10^5 CFU/mL
MRSA [8] = experiment: standard MIC assay using CLSI protocols; assay type: cell-based, Staphylococcus aureus; conditions: 96 well plate, overnight culture; 5×10^5 CFU/mL
Description: For the Clinical & Laboratory Standards Institute (CLSI) MIC protocol bacteria were streaked on LB agar overnight and resuspended in water aliquot. The aliquot was measured, and the bacteria concentration was adjusted to 10^6 CFU/mL in LB media. A 96 well plate with an antibiotic gradient from 128 μg/ml to 0.125 μg/ml in a 2-fold concentration dilution step was prepared with a positive control with no antibiotics. Next, the bacteria were introduced to each well of the 96 well plate for a final bacteria concentration of 5×10^5 CFU/mL. The well plates were cultured overnight.

[9] = 5×10^5 CFU/mL, 100 μg/mL Ampicillin, 50 μg/mL Kanamycin

CC1(C)S[C@@H]2[C@H](NC(=O)[C@H](N)c3ccccc3)C(=O)N2[C@H]1C(=O)O [Ampicillin]
color response (Amp. Resistant E. coli [1]): color change trend from dark blue at zero-minute incubation towards cyan
increase of y values (2D chromaticity diagram) over 1-hour incubation, control and resistant aliquots ([2]; 100 μg/mL Ampicillin, 5×10^5 CFU/mL): 0.19 to 0.33
increase in green value of the 1-hour incubated aliquots compared to the zero minute incubation aliquot ([2]; 5×10^5 CFU/mL): 194%
increase in green value of the 1-hour incubated aliquots compared to the zero minute incubation aliquot ([2]; 10^2 CFU/mL): 142%
increase in green value of the 1-hour incubated aliquots compared to the zero minute incubation aliquot ([2]; 10^3 CFU/mL): 140%
increase in green value of the 1-hour incubated aliquots compared to the zero minute incubation aliquot ([2]; 50 CFU/mL): 131%
color response over 1-hour incubation (resistant / susceptible) [2, 9]: color change from initial dark blue to green; also recorded: color-change from navy blue to green
increase of green values over time (resistant set) (Amp. Resistant E. coli [3]; 100 μg/mL Ampicillin, 1-hour incubation): 88 to 122
increase in the y-value over time (resistant aliquots) (Amp. Resistant E. coli [3]; 100 μg/mL Ampicillin, 5×10^5 CFU/mL, 1-hour incubation): 0.22 to 0.34
color response over 1-hour incubation (Amp. Resistant E. coli [3]; [9]): color change trend from dark blue at zero-minute incubation towards cyan; also recorded: color-change from navy blue to green

O=C(O)c1cn(C2CC2)c2cc(N3CCNCC3)c(F)cc2c1=O [Ciprofloxacin]
y-value (Cipro. Resistant PA [4]; 8 μg/mL Ciprofloxacin): 0.38
y-value (Cipro. Resistant PA [4]; 16 μg/mL Ciprofloxacin): 0.125
y-value (Cipro. Resistant PA [4]; 32 μg/mL Ciprofloxacin): 0.175
color response over 1-hour incubation (resistant / susceptible) (MRSA [5]): constant dark blue color; also recorded: susceptible
color response over 1-hour incubation (resistant / susceptible) (Cipro. Resistant PA [6]): color change from initial dark blue to green; also recorded: resistant

NC[C@H]1O[C@H](O[C@H]2[C@H](O)[C@@H](O[C@H]3O[C@H](CO)[C@@H](O)[C@H](N)[C@H]3O)[C@H](N)C[C@@H]2N)[C@H](O)[C@@H](O)[C@@H]1O [Kanamycin]
constant green value throughout the 1-hour incubation ([2]; 5×10^5 CFU/mL): 49.26±5.32
constant green value throughout the 1-hour incubation ([2]; 10^2 CFU/mL): 47.28±1.93
constant green value throughout the 1-hour incubation ([2]; 10^3 CFU/mL): 48.12±3.21
constant green value throughout the 1-hour incubation ([2]; 50 CFU/mL): 46.15±2.56
constant blue value throughout the 1-hour incubation (Amp. Resistant E. coli [3]; 50 μg/mL Kanamycin): 138.7±5.3
constant green value throughout the 1-hour incubation (Amp. Resistant E. coli [3]; 50 μg/mL Kanamycin): 76.8±4.5
constant red value throughout the 1-hour incubation (Amp. Resistant E. coli [3]; 50 μg/mL Kanamycin): 56.6±4.7
y-value, constant (susceptible set) (Amp. Resistant E. coli [3]; 50 μg/mL Kanamycin, 5×10^5 CFU/mL, 1-hour incubation): 0.205±0.025
y-value (Amp resistant E. coli; 4 μg/mL kanamycin): 0.3
y-value (Amp resistant E. coli; 8 μg/mL kanamycin): 0.125
y-value (Amp resistant E. coli; 16 μg/mL kanamycin): 0.175
MIC (Amp resistant E. coli; Escherichia coli, 1 h, read-out: minimum inhibitory concentration (MIC)): 8 µg/mL (≈ 16.5 µM)

Cc1onc(-c2ccccc2)c1C(=O)N[C@@H]1C(=O)N2[C@@H]1SC(C)(C)[C@@H]2C(=O)O [Oxacillin]
increase of y values (2D chromaticity diagram) over 1-hour incubation, control and resistant aliquots (MRSA [5]): 0.16 to 0.33
color response over 1-hour incubation (resistant / susceptible) (MRSA [5]): color change from initial dark blue to green; also recorded: resistant
inhibition of MRSA metabolism (color change from purple to cyan) (MRSA [7]; 16 μg/mL Oxacillin dose): not enough to fully inhibit
y-value (MRSA [7]; 16 μg/mL Oxacillin): 0.3
y-value (MRSA [7]; 32 μg/mL Oxacillin): 0.125
y-value (MRSA [7]; 64 μg/mL Oxacillin): 0.13
MIC (MRSA [7]; Staphylococcus aureus, MRSA, 1 h, read-out: minimum inhibitory concentration (MIC)): 32 µg/mL (≈ 79.7 µM)
category according to the CLSI breakpoints (MRSA [7]; from MIC): resistant
MIC by standard MIC assay using CLSI protocols, compared with chip MIC (MRSA [8]): confirmed the obtained MIC

Gentamicin
color response over 1-hour incubation (resistant / susceptible) (Cipro. Resistant PA [6]): constant dark blue color; also recorded: susceptible
